Laboratory results taken from ChEMBL document CHEMBL4330092, “Optimization of Vinyl Sulfone Derivatives as Potent Nuclear Factor Erythroid 2-Related Factor 2 (Nrf2) Activators for Parkinson's Disease Therapy” (J Med Chem, 2019).

Assays:
[1] = Aqueous solubility of the compound; type: physicochemical; conditions: aqueous medium
[2] = Tmax in rat at 10 mg/kg, po; type: ADME, organism-based; conditions: in vivo
[3] = Oral bioavailability in rat at 10 mg/kg; type: ADME, organism-based; conditions: in vivo
[4] = Lipophilicity, log P of the compound; type: physicochemical; conditions: octanol/water
[5] = Dissociation constant, pKa of the compound; type: physicochemical

solubility [1]	Tmax [2]	bioavailability [3]	logP [4]	pKa [5]	Structure (SMILES)
< 0.01 mg/mL					COc1ccccc1S(=O)(=O)/C=C/c1ccccc1Cl
> 30 mg/mL	24 min	45.3%	2.29	7.58	Cl.O=S(=O)(/C=C/c1ncccc1F)c1ccc(OCCCN2CCOCC2)cc1
